Data set [1] can be described thus: Inhibition of calcineurin phosphatase activity by the compound.
Data set [2] can be described thus: Relative binding affinity of compound for FK-506 binding protein (FKBP).
Data set [3] has as its system T-cell. As to the kind of experiment: Compound was evaluated for inhibition of T-cell proliferation induced by PMA-ionomycin. Type of data set: functional.
Data set [4] can be described thus: Off-rate of FK-506 binding protein (FKBP) drug complex from their complexes with calcineurin. Format: ADME.
Data set [5] in a line: Relative binding affinity of compound for FK506 binding protein (FKBP).

We go through five molecules from ChEMBL document CHEMBL1132313, “32-Indolyl ether derivatives of ascomycin: three-dimensional structures of complexes with FK506-binding protein” (J Med Chem, 1999).

What is called IC50 is the midpoint of a concentration-inhibition curve.

Regarding `CC[C@@H]1/C=C(/C)[C@@H](O)[C@@H](C)C[C@H](OC)[C@H]2O[C@@](O)(C(=O)C(=O)N3CCCC[C@H]3C(=O)O[C@H](/C(C)=C/[C@@H]3CC[C@@H](O)[C@H](OC)C3)[C@H](C)[C@@H](O)CC1=O)[C@H](C)C[C@@H]2OC`, the IC50 in data set [1] was determined as 2500 nM; in data set [2], 0.7 nM.

As to `CC[C@@H]1/C=C(/C)[C@@H](O)[C@H](C)C[C@H](OC)C2O[C@@](O)(C(=O)C(=O)N3CCCC[C@H]3C(=O)O[C@H](/C(C)=C/[C@@H]3CC[C@@H](Oc4ccc5c(ccn5C)c4)[C@H](OC)C3)[C@H](C)[C@@H](O)CC1=O)[C@H](C)C[C@@H]2OC`, the IC50 in data set [1] is 79 nM. For the same molecule, the T-cell proliferation inhibition in data set [3] is on record as 5.1 nM.

Turning to `CC[C@@H]1/C=C(/C)C[C@H](C)C[C@H](OC)C2O[C@@](O)(C(=O)C(=O)N3CCCC[C@H]3C(=O)O[C@H](/C(C)=C/[C@@H]3CC[C@@H](Oc4ccc5c(ccn5CC)c4)[C@H](OC)C3)[C@H](C)[C@@H](O)CC1=O)[C@H](C)C[C@@H]2OC`, the results for the IC50 in data set [1] and in data set [2] were 8.21 nM and 27 nM, respectively. For the same molecule, in data set [3], the T-cell proliferation inhibition is 0.78 nM.

As for `CC[C@@H]1/C=C(/C)C[C@H](C)C[C@H](OC)C2O[C@@](O)(C(=O)C(=O)N3CCCC[C@H]3C(=O)O[C@H](/C(C)=C/[C@@H]3CC[C@@H](Oc4ccc5c(ccn5CCO)c4)[C@H](OC)C3)[C@H](C)[C@@H](O)CC1=O)[C@H](C)C[C@@H]2OC`, the Off-rate in data set [4] is 254 min. Moreover, the IC50 in data set [1] came to 11.4 nM; in data set [2] it was 5.06 nM. The T-cell proliferation inhibition in data set [3] was found to be 0.19 nM.

For the molecule `C=CC[C@@H]1C=C(C)CC(C)C[C@H](OC)[C@H]2O[C@@](O)(C(=O)C(=O)N3CCCC[C@H]3C(=O)O[C@H](/C(C)=C/[C@@H]3CC[C@@H](O)[C@H](OC)C3)[C@H](C)[C@@H](O)CC1=O)[C@H](C)C[C@@H]2OC` (single isomer, unassigned) [TACROLIMUS ANHYDROUS], the Off-rate in data set [4] came out at 15.1 min. The values for the IC50 in data set [1] and in data set [5] were 11.1 nM and 0.39 nM, respectively. Further, in data set [3], the T-cell proliferation inhibition came to 0.3 nM.
